Measurements published in patent US5646316A, “Bile acid inhibitors of metalloproteinase enzymes” (OsteoArthritis Sciences, Inc., priority 1995, dated 1997).
Where two headings read alike, the source gives them in different places.

Experiments:
[1] = molecular target: stromelysin (Homo sapiens, UniProt P08254); experiment: Assay of Stromelysin Inhibition Activity (fluorogenic substrate hydrolysis); assay type: biochemical; settings: for inhibition at 10 µM: read-out: percent inhibition of stromelysin
Sequence of stromelysin (P08254 100-477): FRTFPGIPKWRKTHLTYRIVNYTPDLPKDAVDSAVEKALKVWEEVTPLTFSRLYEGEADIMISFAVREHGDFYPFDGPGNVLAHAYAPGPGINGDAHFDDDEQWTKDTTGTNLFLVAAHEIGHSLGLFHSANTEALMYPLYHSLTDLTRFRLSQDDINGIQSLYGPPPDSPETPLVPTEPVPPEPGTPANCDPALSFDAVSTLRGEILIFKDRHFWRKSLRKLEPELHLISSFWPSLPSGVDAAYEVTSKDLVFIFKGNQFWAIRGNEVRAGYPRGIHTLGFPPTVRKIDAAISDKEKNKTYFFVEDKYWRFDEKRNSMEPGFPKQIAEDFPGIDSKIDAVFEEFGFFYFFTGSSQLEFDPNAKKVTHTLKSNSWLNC
Description: (§1) Stromelysin was first activated by trypsin. This was done by preparing a reaction mixture in B-150 (B-150 consists of 150 mM NaCl, 20 mM Tris at pH 7.8 and 0.02% sodium azide) containing a final concentration of 4 μg/mL trypsin, 1.48 μg/mL of stromelysin, and 3.15 mM CaCl2. The reaction was incubated for 30 minutes at 37° C. and then quenched by adding soybean trypsin inhibitor to a final concentration of 43.6 μg/mL. ZnCl2 was added to the reaction mixture for a total concentration of 0.24 μM.
(§2) Following preparation of the solution of activated stromelysin, assay solutions were prepared for each inhibitor being tested. A control was also prepared. First, […] of activated stromelysin (about 45 μL from the solution of activated stromelysin) were aliquotted per assay tube. A 2.5 mM solution in 100% dimethyl sulfoxide (DMSO) was prepared for each inhibitor being tested and 1 μL from each inhibitor solution was added to one of the assay tubes. In addition, 1 μL of 100% DMSO was added to the control assay tube. All assay tubes were then pre-incubated for 5 minutes.
(§3) 5 μL of a previously prepared 50 μM solution of substrate in 15% DMSO were added to each assay tube. The substrate was a methoxycumarin developed by Knight et al. FEBS Lett. 296:263-66 (1992). The tubes were then incubated for 60 minutes, at which time the reaction was stopped with the addition of 750 μL of 0.1M NaAc pH 4.0 buffer.
(§4) Substrate hydrolysis was assessed by fluorescence using a slit width of 10:10, excitation at 328 nm and emission at 393 nm. The results of these assays are listed in Table I as percent inhibition at 10 μM of the bile acid provided compound tested or as the IC50.

[2] = molecular target: T1, gelatinase (72 (Kd) (Homo sapiens, UniProt P08253)); experiment: Assay of Gelatinase Inhibition Activity (72 Kd gelatinase); assay type: biochemical; settings: for inhibition at 10 µM: read-out: percent inhibition of gelatinase
T1 sequence (P08253 110-660): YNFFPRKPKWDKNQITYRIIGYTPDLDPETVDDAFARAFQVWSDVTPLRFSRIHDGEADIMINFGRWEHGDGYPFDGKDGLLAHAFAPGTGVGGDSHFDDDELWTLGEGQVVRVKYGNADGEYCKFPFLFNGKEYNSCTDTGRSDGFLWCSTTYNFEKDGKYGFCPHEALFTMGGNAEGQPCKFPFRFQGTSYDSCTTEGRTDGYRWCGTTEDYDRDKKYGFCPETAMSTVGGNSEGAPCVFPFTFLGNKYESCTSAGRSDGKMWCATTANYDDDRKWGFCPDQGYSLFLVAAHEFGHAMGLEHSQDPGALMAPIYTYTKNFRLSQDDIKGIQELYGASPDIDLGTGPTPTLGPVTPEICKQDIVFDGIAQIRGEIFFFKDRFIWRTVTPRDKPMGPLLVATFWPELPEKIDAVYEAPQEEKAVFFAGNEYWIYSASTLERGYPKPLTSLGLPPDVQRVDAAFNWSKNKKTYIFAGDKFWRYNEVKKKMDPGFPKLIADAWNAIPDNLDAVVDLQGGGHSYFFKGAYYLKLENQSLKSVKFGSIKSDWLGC
Description: as §1, §2, §3, §4
The assay procedure for gelatinase (72 (Kd) was the same as described in Example 13 for stromelysin except that the trypsin activation was performed for 60 minutes. In addition, the incubation of the assay tubes at 37° C. was for 60 minutes, and the final enzyme concentration was 3 nm. The results of these assays are listed in Table I as percent inhibition at 10 μM of the compound tested.

[3] = tested on: collagenase; experiment: Assay of Collagenase Inhibition Activity; assay type: biochemical; settings: at 10 μM of compound; 45 minutes at 37° C.
Description: as §1, §2, §3, §4
The assay procedure for collagenase was the same as described in Example 13 for stromelysin except that the trypsin activation was performed for 45 minutes. In addition, the incubation of the assay tubes at 37° C. was only for 45 minutes, and the final enzyme concentration is 6 nm. The results of these assays are provided in Table I as percent inhibition at 10 μM of the compound tested.

[4] = tested on: bovine cartilage explants; experiment: Bovine Cartilage Explant Assay (35S-GAG release, rhIL-1α stimulated; tissue culture); assay type: cell-based; settings: Bos taurus, read-out: percent inhibition of extracellular matrix damage, Tissue Culture
Text: A tissue culture assay was used to measure the ability of the compounds of the present invention to slow the degradation of the extracellular matrix by metalloproteinases. This assay measured the amount of ^35 S-glycosaminoglycan (^35 S-GAG) released from labeled bovine cartilage explants.
Knee joints from a 1 to 3 week old calf were obtained immediately after sacrifice from the Abattoir and then transported on ice. The intact joints were washed well with tap water and soaked in 50% (v/v) Povidine iodine solution, obtained from Burre National, Inc., Baltimore, Md. All subsequent steps were performed in a laminar flow tissue culture hood using standard sterile technique. The joint was immobilized in a shank holder and the joint capsule was cut open to expose the articular cartilage. Cartilage explant plugs, approximately 15 mg wet weight, were removed from the flat articulating surfaces in the lower-most region of the knee joint using a sterile steel cork-borer and collected in a 250 mL roller bottle containing about 100 mL fresh Delbecco's minimum essential medium (DMEM), obtained from Gibco BRC, Life Technologies, Gaithersburg, Md., containing 4.5 g/1 (D)-glucose and (L)-glutamine, without sodium pyruvate. The fresh media also contained enough Hepes buffer and sodium bicarbonate such that the pH was about 7.4. The media was then further supplemented just before use with 100 units Penicillin, 100 μg Streptomycin, and 50 μg (L)-ascorbic acid per mL of medium.
Once collected, the explant plugs were washed four times with 50 mL fresh DMEM. The plugs were then placed in the incubator for a minimum of 1 hour to equilibrate, before proceeding to make disks from the articulating surface of each plug. A 1 mm thick disk was sliced from individual plugs from the end that was the articulating surface of the joint. The plug was held steady in the sterile template (4 mm diameter×1.5 mm deep) using sterile forceps. A scalpel blade was used to carefully slice off the disk. Only the superficial articulating surface responded well in culture.
Individual disks obtained were transferred to a tissue culture flask containing about 100 mL fresh media. The flask containing the disks was placed in an incubator at 37° C. (with 5% CO2, 95% air) and allowed to equilibrate overnight and at least one additional day before labeling. When ready to label, the old media was replaced with 50 mL fresh media containing about 500 μCi ^35 S-Sodium Sulfate. The plugs were labeled in bulk for about 48 hours. The next morning, the "hot" media was removed and replaced with fresh "cold" media. The disks were again allowed to equilibrate overnight before being used for actual experiments.
The media in which the disks were stored was changed immediately prior to performing the assay. The disks were then returned to the incubator until the test media and the two control media had been prepared. The test media consisted of a bile acid or bile acid derivative (50 μM) being tested for its ability to inhibit extracellular matrix degradation and concomitant recombinant human Interleukin rhIL-1α (5 ng/mL) in fresh DMEM solution. The control media were identical to the test media, except that the first control media lacked rhIL-1α and the second control media lacked an inhibitor, i.e. a bile acid or bile acid derivative. 250 μL of each of the test and control media were transferred to separate 96-well TC plates. Flamed forceps were used to transfer a disk from the incubator to each 96-well TC plates that had been filled with either the test media or one of the two control media.
The TC plates were then placed in the incubator and cultured for 3-4 days (initial incubation with rhIL-1α alpha takes at least 3 days to stimulate endogenous metalloproteinases). A 50 μL aliquot of media from each TC plate was saved and counted. The rest of the media was removed with a suction device.
The cartilage disks from each TC plate were also saved for counting. […]

[5] = tested on: chondrocytes; experiment: Chondrocyte Cell Culture Matrix Breakdown Assay (35S release, rhIL-1α stimulated); assay type: cell-based, calf; settings: at 50 μM; rhIL-1α 1 ng/ml; 22-24 hours
Description: A cell culture assay was used to measure the ability of compounds to slow the degradation of the extracellular matrix by a metalloproteinase. This assay measured the amount ^35 S released from chondrocytes grown in a media with ^35 S labeled sodium sulfate. The cell culture assay was carried out as follows:
Two or three 1 to 3 week old calf joints were obtained from an abattoir. The proximal end of the shank was at about 4-5" long to facilitate immobilization in the holder. The joint was kept cool and transported on ice. The exterior of the intact joints was washed well with a suitable anti-microbial soap, rinsed clean with warm water, rinsed in betadine and then finally rinsed with 70% ethanol. Up to this point all steps were done in a manner to ensure that the joint was kept as clean as possible. All subsequent steps were performed in a sterile field (i.e., in a Edgeguard laminar flow tissue culture hood). The joint was immobilized and the synovial fluid was aspirated with a needle and syringe. The joint was then cut open to expose the articular cartilage using a #21 scalpel. Using locking hemostats, forceps and a #15 scalpel, the cartilage was excised in full thickness pieces. Care was taken not to cut too deep because bleeding would have occurred if the subchondral bone, was penetrated. The cartilage pieces were placed into a 50 mL centrifuge tube containing 25 mL of Delbecco's phosphate buffered saline (D-PBS) supplemented with 1% antibiotic solution (penicillin, streptomycin and fungizone; GIBCO/BRL). The slices from each joint were then placed into separate 50 mL centrifuge tubes. The D-PBS was decanted and replaced with 25 mL of fresh D-PBS supplemented with antibiotics and subsequently agitated gently.
The cartilage pieces were transferred to a fresh 50 mL centrifuge tube and rinsed once more with 25 mL of D-PBS minus antibiotics. An enzymatic digestion solution containing 1 mg/mL of hyaluronidase in serum-free 1:1 DMEM/Ham's F-12 (DMEM/F12) was prepared. This solution was filter sterilized with […] Milex--GV filter and kept on ice until ready to use. The cartilage pieces were digested with approximately 5 mL of hyaluronidase solution per joint for 2×15 minutes at 37° C. in the 50 mL centrifuge tube with gentle agitation at the 15 minute mark. This procedure removed residual hyaluronic acid from the surface of the chips. The enzymatic digestion solution was then aspirated and the cartilage pieces were rinsed with 25 mL of D-PBS.
A second enzymatic digestion solution containing 2.5 mg trypsin and 2 mg collagenase P per mL serum-free DMEM/F12 was prepared. This solution was also filter sterilized with a […] Millex--GV filter and kept on ice until ready to use. The cartilage pieces were digested with approximately 5 mL of trypsin: collagenase solution per joint for 2×15 minutes at 37° C. in the 50 mL centrifuge tube with gentle agitation at the 15 minute mark. This procedure removed the synovial fibroblasts and any adherent connective tissue from the surface of the chips. The enzymatic digestion solution was then carefully removed and saved and the cartilage pieces were rinsed with 25 mL of D-PBS.
A third enzymatic solution containing 2 mgs of collagenase P (BMB) per mL serum-free DMEM/F12 was prepared. This solution was filter sterilized with a […] Millex--GV filter and kept on ice until ready to use. The pre-digested cartilage pieces were finally digested with approximately 20 mL of enzymatic digestion solution per joint for 5-6 hours at 37° C. in a Bellco stirring digestion flask, at which point the cartilage was fully digested away.
The enzymes in the synovial fibroblast and chondrocyte digest were neutralized by addition of an equal volume of DMEM/F12 supplemented with 5% fetal bovine serum. Fibroblasts were plated in DMEM at a cellular density of 6.6×10^3 cells per cm^2. […]

[6] = at 10 μM of compound, 60 minutes at 37° C.

SMILES	inhibition at 10 µM [2]	percent inhibition of collagenase [3]	inhibition at 50 µM [4]	inhibition at 10 µM ([1]; at 10 μM of compound)	inhibition at 10 µM [2, 6]	further results
C[C@H](CCC(=O)O)[C@H]1CC[C@H]2[C@@H]3[C@H](O)C[C@@H]4C[C@H](O)CC[C@]4(C)[C@H]3C[C@H](O)[C@]12C [Compound 7, Cholic acid, reference compound]	4%	21%	-90%			inhibition at 10 µM [1]: 24%
C[C@H](CCC(=O)NOCc1ccccc1)[C@H]1CC[C@H]2[C@@H]3CC[C@@H]4C[C@H](O)CC[C@]4(C)[C@H]3CC[C@]12C [Compound 11, Lithocholyl-O-Benzylhydroxamate]		13%		25%	21%	
C[C@H](CCC(=O)N[C@@H](Cc1c[nH]c2ccccc12)C(=O)O)[C@H]1CC[C@H]2[C@@H]3CC[C@@H]4C[C@H](O)CC[C@]4(C)[C@H]3CC[C@]12C [Compound 17, Lithocholyl-(L)-Tryptophane]	5%		8%			
C[C@H](CCC(=O)N[C@@H](Cc1c[nH]c2ccccc12)C(=O)NO)[C@H]1CC[C@H]2[C@@H]3CC[C@@H]4C[C@H](O)CC[C@]4(C)[C@H]3CC[C@]12C [Compound 18, Lithocholyl-(L)-Tryptophane Hydroxamic Acid]		35%		90%	41%	inhibition at 50 µM ([4]; at 50 μM, rhIL-1α 5 ng/mL, 3-4 days): 3%
CC(C)C(CC(=O)NO)NC(=O)CC[C@@H](C)[C@H]1CC[C@H]2[C@@H]3CC[C@@H]4C[C@H](O)CC[C@]4(C)[C@H]3CC[C@]12C (stereo partly drawn) [Compound 21, Lithocholyl-β-Leucine Hydroxamic Acid]						IC50 ([1]; 60 minutes incubation): 3000 nM; IC50 ([2]; 60 minutes at 37° C.): 7 µM; percent inhibition, Cell Culture [5]: 88%
